Columns and labels:
recombinant CHO cells [1] = assay type: cell-based
Procedure: The present inventors confirmed whether the expression of antisense RNA of caspase-3 could inhibit the NaBu-induced apoptosis. Particularly, control cells and B3 cells obtained in Example <1-1> were seeded at a concentration of 4×10^4 cells/ml in 6-well culture plates containing 5 ml of an alpha-minimum essential medium supplemented with 5% dialyzed fetal bovine serum and 0.32 μM of methotrexate. After three days of cultivation, the spent medium was replaced with fresh medium containing 0-5 mM of sodium butyrate. Cells were harvested periodically. Viable cells were distinguished from dead cells using the trypan blue dye exclusion method to determine cell viability. In addition, secreted humanized antibody concentration was measured by enzyme-linked immunosorbent assay (ELISA).

recombinant CHO cells [2] = test: LDH activity in culture supernatant (degree of cell lysis) after sodium butyrate; assay type: cell-based; conditions: control cells, first two days after addition of 5 mM sodium butyrate
Excerpt: The integrity of protein product is influenced by the degree of cell lysis because some proteolytic enzymes and glycosidases released from the cellular membrane ruptured-dead cells influence the molecular integrity of the product (Goldman, et al., 1997, Cytotechnology, 23, 103-111; Hansen, et al., 1997, Cytotechnology, 24, 227-234; Teige, et al., 1994, J. Biotechnol., 34, 101-105). The amount of lysed cells can be determined by measuring the amount of lactate dehydrogenase (LDH) released into the culture supernatant (Cruz, et al., 2000, Biotechnol. Lett., 22, 677-682). Thus, to determine the degree of cell lysis, the LDH activity in culture supernatant was measured daily after treatment with 5 mM of sodium butyrate.

For `CCCC(=O)[O-].[Na+]` [sodium butyrate], the “cytotoxic effect on the cell growth” value (recombinant CHO cells [1]; 0-5 mM sodium butyrate, control and B3 CHO cells) was “dose-dependent”, the cellular apoptosis (recombinant CHO cells [1]; 5 mM sodium butyrate) was “induced” and the “viability of control cells” value (recombinant CHO cells [1]; three days after treatment with 5 mM sodium butyrate, control cells (null pcDNA3.1-zeo(+))) was “under 50%”. The “LDH activity in culture supernatant” value (recombinant CHO cells [2]) was “increased rapidly”.
